Results published in PMC9398908, “GLP-1-mediated delivery of tesaglitazar improves obesity and glucose metabolism in male mice” (Nature Metabolism, 2022).
Values joined by “and” are separate entries in the source; they are usually repeats but may differ in a detail not shown here. Equal entries are not always repeated.

Assays:
hGLP-1R [1] = biological target: T1, hGLP-1R (Homo sapiens, UniProt P43220); test: Ligand-induced cAMP production (CAMYEL BRET sensor) in hGLP-1R+ HEK293T cells; type: cell-based; settings: HEK293 cells transfected with human GLP-1R; dose response, Fig. 1b; in words
T1 construct: host or cells: HEK293T, transient transfection
T1 sequence (P43220 24-463): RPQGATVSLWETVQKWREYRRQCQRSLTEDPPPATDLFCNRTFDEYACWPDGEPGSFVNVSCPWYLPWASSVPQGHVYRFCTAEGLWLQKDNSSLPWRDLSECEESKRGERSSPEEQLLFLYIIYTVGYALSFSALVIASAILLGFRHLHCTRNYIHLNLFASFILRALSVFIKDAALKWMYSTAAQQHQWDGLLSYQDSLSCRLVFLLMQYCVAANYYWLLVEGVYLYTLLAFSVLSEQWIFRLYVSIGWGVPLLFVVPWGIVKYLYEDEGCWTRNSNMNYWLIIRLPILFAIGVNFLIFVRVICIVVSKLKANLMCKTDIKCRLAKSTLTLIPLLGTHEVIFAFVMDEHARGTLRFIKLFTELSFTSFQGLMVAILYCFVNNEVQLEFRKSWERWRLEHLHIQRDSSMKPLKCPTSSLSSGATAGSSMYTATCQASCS
Description: (§1) HEK293T cells (700,000 per well) were seeded in six-well plates and incubated to 70% confluency in DMEM (10% FBS, 1% Pen/Strep). Twenty-four hours following seeding, transient transfections were performed using Lipofectamine 2000 (catalogue no. 11668019, Invitrogen) according to the manufacturer’s protocol without including additional transformation carrier DNA.
(§2) Twenty-four hours following transfection, HEK293T cells or MIN6 cells were washed with PBS and resuspended in FluoroBrite phenol red-free complete media (catalogue no. A1896701, Life Technologies) containing 5% FBS and 2 mM of L-glutamine (catalogue no. 25030081, Life Technologies). 100,000 cells per well were plated into poly-D-lysine-coated (catalogue no. P6403, Sigma-Aldrich) 96-well white polystyrene LumiNunc plates (catalogue no. 10072151, Thermo Fisher Scientific). After 24 h, the media was replaced with PBS (catalogue no. 10010056, Gibco) containing 10 μM of coelenterazine-h (catalogue no. S2011, Promega) or 1:500 dilution of NanoGlo (catalogue no. N1110, Promega). BRET measurements were taken every 30 s–2 min using a PHERAstar FS multi-mode microplate reader. […] The resulting ligand-specific ratiometric BRET signals were normalized to vehicle producing the ‘ligand-induced BRET ratio’[37], followed by an additional normalization step to well-specific baseline readings.

DIO mice = test: Acute i.p. glucose tolerance test in DIO mice 6 h after a single s.c. dose (Fig. 3); type: in vivo, mouse; design: AOC: unit not given here; settings: for AOC: AOC of i.p. GTT, DIO mice, 6 h after single s.c. dose, individual animals
Description: (§3) Glp1r^−/− mice were kindly provided by D. Drucker (University of Toronto, Canada). All wildtype and knockout mice used in our studies were in-house bred on a C57BL/6J background. Mice were double-housed and kept in a constant environment with the ambient temperature set to 22 ± 2 °C with constant humidity (45–65%) and a 12 h/12 h light/dark cycle with lights off from 06:00 until 18:00. For studies in DIO mice, male C57BL/6J mice were fed with a high-fat diet comprising 58% kilocalories from fat (D12331, Research Diets). db/db mice were fed with a normal chow diet (T1314, Altromin GmbH) throughout the study. At the beginning of each experiment, mice were equally distributed into experimental groups according to their body weight and body composition. All animal studies were approved by the State of Bavaria, Germany, or the Insitutional Animal Care and Use Committee of the University of Cincinnati, OH, USA and conducted on the basis of the underlying animal welfare law of the respective countries. Compounds were dissolved in PBS and were s.c. administered with a volume of 5 μl g^−1 body weight in the indicated doses between 15:00 and 16:00.
(§4) Glucose tolerance was assessed in 6 h fasted mice after i.p injection of 1.75 g glucose per kg body weight (DIO mice). Insulin tolerance was assessed in 6 h fasted mice after i.p. injection of either 0.75 U Insulin per […] body weight (DIO mice) or 1 U Insulin per […] body weight (db/db mice) (Humalog, Eli Lilly). Tail vein blood glucose was subsequently measured using a handheld glucometer (TheraSense Freestyle) at baseline and after 15, 30, 60 and 120 min.

hGLP-1R [2] = biological target: T1, hGLP-1R; test: Ligand-induced Mini-Gαs recruitment to hGLP-1R-GFP (BRET) in HEK293T cells; type: cell-based; settings: HEK293 cells transfected with human GLP-1R; dose response, Fig. 1a; in words
Description: as §1, §2

hGLP-1R [3] = biological target: T1, hGLP-1R; test: Ligand-induced hGLP-1R-Rluc8 internalization (loss of BRET with Venus-KRAS) in HEK293T cells; type: cell-based; settings: HEK293 cells transfected with human GLP-1R; dose response, Fig. 1c; in words
Description: as §1, §2

lean C57BL/6J mice = test: 14-day treatment of lean mice: body weight, plasma cholesterol, triglycerides, AST, ALT, heart weight (Fig. 2n–s); type: in vivo, mouse; design: Cholesterol / TAG: unit not given here
Description: as §3

db/db mice = test: 4-day treatment of obese db/db mice (50 nmol/kg/day): body weight, food intake, glucose, tolerance test (Fig. 6); type: in vivo, mouse; design: blood glucose (legend: change in blood glucose) / AOC: unit not given here; settings: 4 days, 50 nmol kg−1 per day, individual mice
Description: as §3, §4

cAMP production (hGLP-1R [1]): had no effect
GLP-1R-mediated Gαs recruitment (hGLP-1R [2]): had no effect
GLP-1R internalization (hGLP-1R [3]): had no effect
SMILES: CCO[C@@H](Cc1ccc(OCCc2ccc(OS(C)(=O)=O)cc2)cc1)C(=O)O [tesaglitazar, (S)-2-ethoxy-3-(4-(4-((methylsulfonyl)oxy)phenethoxy)phenyl) propanoic acid]
AOC (DIO mice; 10 nmol/kg): 602.5 and 1138 and 938 and 739 and 687.5 and 514.5 and 579.5 and 713.5
AOC (DIO mice; 100 nmol/kg): 808 and 562 and 500.5 and 764.5 and 734.5 and 596.5 and 539.5 and 745.5
i.p. glucose tolerance (DIO mice; weight-matched DIO mice, single bolus 10 and 100 nmol kg−1, GTT 6 h after dose, Fig. 3a,b, in words): acutely worsened i.p. glucose tolerance
Heart weight/Tibia (lean C57BL/6J mice; 14-day treatment, individual animals (Fig. 2s)): 88.25 and 101.20 and 133.32 and 102.79 and 98.68 and 111.28 and 98.00 and 103.11
plasma cholesterol levels (lean C57BL/6J mice; 14 days, 50 nmol kg−1 per day, Fig. 2o, in words): reduced plasma cholesterol levels
TAG (lean C57BL/6J mice; plasma triglycerides, 14-day treatment, individual animals (Fig. 2p)): 28.51 and 67.33 and 61.82 and 37.82 and 28.64 and 34.88 and 35.62 and 62.31
Cholesterol (lean C57BL/6J mice; plasma, 14-day treatment, individual animals (Fig. 2o)): 68.85 and 109.93 and 69.31 and 90.92 and 65.38 and 84.58 and 89.99 and 80.51
ALT (lean C57BL/6J mice; plasma, 14-day treatment, individual animals (Fig. 2q), in U/L (unit assumed)): 7.51 and 24.40 and 11.85 and 4.07 and 8.93 and 10.70 and 5.04 and 14.23
AST (lean C57BL/6J mice; plasma, 14-day treatment, individual animals (Fig. 2r), in U/L (unit assumed)): 11.14 and 10.87 and 31.82 and 15.56 and 14.94 and 16.00 and 16.09 and 19.09
blood glucose (plasma glucose) (db/db mice; Fig. 6c): 482 and 462 and 314 and 500 and 452 and 446
AOC (db/db mice; Fig. 6f, baseline-corrected): 9 and 124.5 and 63.27 and 252.8 and 257.2 and 64
blood glucose (legend: change in blood glucose) (db/db mice; Fig. 6d): 33 and 120 and -49 and 69 and 52 and 7
